Laboratory results reported in patent publication US6552196B2, “Quinolone carboxylic acid derivatives” (Dong Wha Pharmaceutical Industrial Co., Ltd., priority 1997, dated 2003).
≈ marks a conversion by molar mass, not a printed value.

How the values were obtained:
Type in all cases: cell-based
[1] = system: Pseudomonas aeruginosa 9027; test: In vitro antibacterial activity (MIC), agar dilution; details: 2-fold agar dilution, Muller-Hinton agar, 18 hours at 37° C., read-out: minimum inhibitory concentration (MIC)
Procedure, shortened: (§1)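 Methicillin-resistant strains: 30 °C for 48 h. Other strains: 37 °C for 18 h. Inoculum of 10^7 cfu/ml throughout.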

Esherichia coli DC0 = test: as above; details: 2-fold agar dilution, Muller-Hinton agar, 18 hours at 37° C., read-out: minimum inhibitory concentration (MIC)
Procedure, shortened: as §1

[2] = system: Streptococcus faecium MD 8b; test: as above; details: Enterococcus faecium, MD8B, 2-fold agar dilution, Muller-Hinton agar, 18 hours at 37° C., read-out: minimum inhibitory concentration (MIC)
Procedure, shortened: as §1

Esherichia coli TEM = test: as above; details: 2-fold agar dilution, Muller-Hinton agar, 18 hours at 37° C., read-out: minimum inhibitory concentration (MIC)
Procedure, shortened: as §1

[3] = system: Staphylococcus aureus 285; test: as above; details: 2-fold agar dilution, Muller-Hinton agar, 18 hours at 37° C., read-out: minimum inhibitory concentration (MIC)
Procedure, shortened: as §1

Esherichia coli 1507E = test: as above; details: 2-fold agar dilution, Muller-Hinton agar, 18 hours at 37° C., read-out: minimum inhibitory concentration (MIC)
Procedure, shortened: as §1

[4] = system: Staphylococcus aureus 503; test: as above; details: 2-fold agar dilution, Muller-Hinton agar, 18 hours at 37° C., read-out: minimum inhibitory concentration (MIC)
Procedure, shortened: as §1

Esherichia coli 078 = test: as above; details: 2-fold agar dilution, Muller-Hinton agar, 18 hours at 37° C., read-out: minimum inhibitory concentration (MIC)
Procedure, shortened: as §1

Klebsiella oxytoca 1082E = test: as above; details: 2-fold agar dilution, Muller-Hinton agar, 18 hours at 37° C., read-out: minimum inhibitory concentration (MIC)
Procedure, shortened: as §1

[5] = system: Pseudomonas aeruginosa 1771M; test: as above; details: Pseudomonas aeruginosa, 1771M, 18 h, read-out: minimum inhibitory concentration (MIC)
Procedure, shortened: as §1

[6] = system: Staphylococcus aureus SG511; test: as above; details: 2-fold agar dilution, Muller-Hinton agar, 18 hours at 37° C., read-out: minimum inhibitory concentration (MIC)
Procedure, shortened: as §1

Esherichia coli DC2 = test: as above; details: 2-fold agar dilution, Muller-Hinton agar, 18 hours at 37° C., read-out: minimum inhibitory concentration (MIC)
Procedure, shortened: as §1

[7] = system: Klebsiella aerogenes 1522E; test: as above; details: 2-fold agar dilution, Muller-Hinton agar, 18 hours at 37° C., read-out: minimum inhibitory concentration (MIC)
Procedure, shortened: as §1

Salmonella typhimurium = test: as above; details: Salmonella enterica, 2-fold agar dilution, Muller-Hinton agar, 18 hours at 37° C., read-out: minimum inhibitory concentration (MIC)
Procedure, shortened: as §1

[8] = system: Pseudomonas aeruginosa 1771; test: as above; details: 2-fold agar dilution, Muller-Hinton agar, 18 hours at 37° C., read-out: minimum inhibitory concentration (MIC)
Procedure, shortened: as §1

[9] = system: Pseudomonas aeruginosa 1592E; test: as above; details: 2-fold agar dilution, Muller-Hinton agar, 18 hours at 37° C., read-out: minimum inhibitory concentration (MIC)
Procedure, shortened: as §1

[10] = system: Streptococcus pyogens 77A; test: as above; details: 2-fold agar dilution, Muller-Hinton agar, 18 hours at 37° C., read-out: minimum inhibitory concentration (MIC)
Procedure, shortened: as §1

[11] = system: Streptococcus pyogens 308A; test: as above; details: 2-fold agar dilution, Muller-Hinton agar, 18 hours at 37° C., read-out: minimum inhibitory concentration (MIC)
Procedure, shortened: as §1

[12] = system: Staphylococcus aureus 88E; test: In vitro antibacterial activity against resistant strains (MIC); details: resistant strain Staphylococcus aureus 88E; 2-fold agar dilution; methicillin resistant strains 48 hours at 30° C.; read-out: minimum inhibitory concentration (MIC)
Method: (§2) 10^7 cfu/ml of bacteria were inoculated and cultured for 18 hours at 37° C. and then the antibacterial activities were measured. For the methicillin resistant strains the activities were measured after 48 hours of cultivation at 30° C. Hoechst Standard strains were used for the testings.

[13] = system: Staphylococcus aureus 8236; test: as above; details: resistant strain Staphylococcus aureus 8236; 2-fold agar dilution; methicillin resistant strains 48 hours at 30° C.; read-out: minimum inhibitory concentration (MIC)
Method: as §2

[14] = system: Staphylococcus aureus 695E; test: as above; details: resistant strain Staphylococcus aureus 695E; 2-fold agar dilution; methicillin resistant strains 48 hours at 30° C.; read-out: minimum inhibitory concentration (MIC)
Method: as §2

[15] = system: Staphylococcus aureus 208E; test: as above; details: resistant strain Staphylococcus aureus 208E; 2-fold agar dilution; methicillin resistant strains 48 hours at 30° C.; read-out: minimum inhibitory concentration (MIC)
Method: as §2

[16] = system: Staphylococcus epidermidis 178; test: as above; details: resistant strain Staphylococcus epidermidis 178; 2-fold agar dilution; methicillin resistant strains 48 hours at 30° C.; read-out: minimum inhibitory concentration (MIC)
Method: as §2

[17] = system: Staphylococcus epidermidis 291; test: as above; details: resistant strain Staphylococcus epidermidis 291; 2-fold agar dilution; methicillin resistant strains 48 hours at 30° C.; read-out: minimum inhibitory concentration (MIC)
Method: as §2

[18] = system: Staphylococcus aureus 256E; test: as above; details: resistant strain Staphylococcus aureus 256E; 2-fold agar dilution; methicillin resistant strains 48 hours at 30° C.; read-out: minimum inhibitory concentration (MIC)
Method: as §2

[19] = system: Staphylococcus aureus 690E; test: as above; details: resistant strain Staphylococcus aureus 690E; 2-fold agar dilution; methicillin resistant strains 48 hours at 30° C.; read-out: minimum inhibitory concentration (MIC)
Method: as §2

[20] = system: Staphylococcus aureus 692E; test: as above; details: resistant strain Staphylococcus aureus 692E; 2-fold agar dilution; methicillin resistant strains 48 hours at 30° C.; read-out: minimum inhibitory concentration (MIC)
Method: as §2

[21] = system: Staphylococcus aureus 179; test: as above; details: resistant strain Staphylococcus aureus 179; 2-fold agar dilution; methicillin resistant strains 48 hours at 30° C.; read-out: minimum inhibitory concentration (MIC)
Method: as §2

[22] = system: Staphylococcus aureus 694E; test: as above; details: resistant strain Staphylococcus aureus 694E; 2-fold agar dilution; methicillin resistant strains 48 hours at 30° C.; read-out: minimum inhibitory concentration (MIC)
Method: as §2

[23] = system: Staphylococcus aureus 697E; test: as above; details: resistant strain Staphylococcus aureus 697E; 2-fold agar dilution; methicillin resistant strains 48 hours at 30° C.; read-out: minimum inhibitory concentration (MIC)
Method: as §2

[24] = system: Staphylococcus aureus 703E; test: as above; details: resistant strain Staphylococcus aureus 703E; 2-fold agar dilution; methicillin resistant strains 48 hours at 30° C.; read-out: minimum inhibitory concentration (MIC)
Method: as §2

[25] = system: Staphylococcus aureus 293; test: as above; details: resistant strain Staphylococcus aureus 293; 2-fold agar dilution; methicillin resistant strains 48 hours at 30° C.; read-out: minimum inhibitory concentration (MIC)
Method: as §2

[26] = system: Staphylococcus aureus 303; test: as above; details: resistant strain Staphylococcus aureus 303; 2-fold agar dilution; methicillin resistant strains 48 hours at 30° C.; read-out: minimum inhibitory concentration (MIC)
Method: as §2

[27] = system: Staphylococcus aureus 121E; test: as above; details: resistant strain Staphylococcus aureus 121E; 2-fold agar dilution; methicillin resistant strains 48 hours at 30° C.; read-out: minimum inhibitory concentration (MIC)
Method: as §2

[28] = system: Staphylococcus aureus 701E; test: as above; details: resistant strain Staphylococcus aureus 701E; 2-fold agar dilution; methicillin resistant strains 48 hours at 30° C.; read-out: minimum inhibitory concentration (MIC)
Method: as §2

[29] = system: Staphylococcus aureus 241; test: as above; details: resistant strain Staphylococcus aureus 241; 2-fold agar dilution; methicillin resistant strains 48 hours at 30° C.; read-out: minimum inhibitory concentration (MIC)
Method: as §2

[30] = system: Staphylococcus aureus 693E; test: as above; details: resistant strain Staphylococcus aureus 693E; 2-fold agar dilution; methicillin resistant strains 48 hours at 30° C.; read-out: minimum inhibitory concentration (MIC)
Method: as §2

O=C(O)c1cn(C2CC2)c2cc(N3CCNCC3)c(F)cc2c1=O [Ciprofloxacin, ciprofloxacin, reference compound]
MIC [1]: 0.195 µg/mL (≈ 0.589 µM)
MIC (Esherichia coli DC0): 0.195 µg/mL (≈ 0.589 µM)
MIC [2]: 0.391 µg/mL (≈ 1.18 µM)
MIC (Esherichia coli TEM): 0.007 µg/mL (≈ 0.0211 µM)
MIC [3]: 0.781 µg/mL (≈ 2.36 µM)
MIC (Esherichia coli 1507E): 0.007 µg/mL (≈ 0.0211 µM)
MIC [4]: 0.391 µg/mL (≈ 1.18 µM)
MIC (Esherichia coli 078): 0.004 µg/mL (≈ 0.0121 µM)
MIC (Klebsiella oxytoca 1082E): < 0.002 µg/mL
MIC [5]: 0.049 µg/mL (≈ 0.148 µM)
MIC [6]: 0.195 µg/mL (≈ 0.589 µM)
MIC (Esherichia coli DC2): 0.049 µg/mL (≈ 0.148 µM)
MIC [7]: 0.013 µg/mL (≈ 0.0392 µM)
MIC (Salmonella typhimurium): 0.007 µg/mL (≈ 0.0211 µM)
MIC [8]: 0.195 µg/mL (≈ 0.589 µM)
MIC [9]: 0.195 µg/mL (≈ 0.589 µM)
MIC [10]: 0.781 µg/mL (≈ 2.36 µM)
MIC [11]: 3.12 µg/mL (≈ 9.43 µM)
MIC [12]: 0.781 µg/mL (≈ 2.36 µM)
MIC [13]: 12.5 µg/mL (≈ 37.7 µM)
MIC [14]: 0.391 µg/mL (≈ 1.18 µM)
MIC [15]: 0.781 µg/mL (≈ 2.36 µM)
MIC [16]: 50 µg/mL (≈ 151 µM)
MIC [17]: 50 µg/mL (≈ 151 µM)
MIC [18]: 0.781 µg/mL (≈ 2.36 µM)
MIC [19]: 0.391 µg/mL (≈ 1.18 µM)
MIC [20]: 0.391 µg/mL (≈ 1.18 µM)
MIC [21]: 12.5 µg/mL (≈ 37.7 µM)
MIC [22]: 0.391 µg/mL (≈ 1.18 µM)
MIC [23]: 0.391 µg/mL (≈ 1.18 µM)
MIC [24]: 0.391 µg/mL (≈ 1.18 µM)
MIC [25]: 12.5 µg/mL (≈ 37.7 µM)
MIC [26]: 12.5 µg/mL (≈ 37.7 µM)
MIC [27]: 0.781 µg/mL (≈ 2.36 µM)
MIC [28]: 0.391 µg/mL (≈ 1.18 µM)
MIC [29]: 12.5 µg/mL (≈ 37.7 µM)
MIC [30]: 0.391 µg/mL (≈ 1.18 µM)
